We go through three compounds from EP0503520A1, “Cyclic ketal derivatives” (GLAXO GROUP LIMITED, priority 1991, dated 1992).

The experiment concerns the target T1, squalene synthase (Rattus norvegicus, UniProt Q02769).
T1 construct: incubating rat liver homogenate with various concentrations of the test compound; from tissue; host or cells: rat liver homogenate
T1 sequence (Q02769 1-416): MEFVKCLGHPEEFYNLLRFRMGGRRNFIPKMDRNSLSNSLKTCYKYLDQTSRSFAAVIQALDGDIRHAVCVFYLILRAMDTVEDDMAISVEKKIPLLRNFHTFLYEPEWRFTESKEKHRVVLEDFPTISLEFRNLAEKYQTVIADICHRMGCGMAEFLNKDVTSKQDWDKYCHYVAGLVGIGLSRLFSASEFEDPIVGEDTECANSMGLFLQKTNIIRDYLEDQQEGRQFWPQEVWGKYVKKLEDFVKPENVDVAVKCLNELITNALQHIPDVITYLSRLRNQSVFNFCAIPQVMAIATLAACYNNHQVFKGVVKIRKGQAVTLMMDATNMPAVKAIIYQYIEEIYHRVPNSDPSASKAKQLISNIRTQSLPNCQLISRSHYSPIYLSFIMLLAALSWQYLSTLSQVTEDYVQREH
Nature of the experiment: Inhibition of squalene synthase in rat liver homogenate with [2-14C]farnesylpyrophosphate as substrate. Particulars: 50% inhibition of [14C]squalene production in a 30 minute assay, read-out: IC₅₀. It counts as biochemical. On the procedure: Acta, Volume 877, 50-60 (1986) and modified to include measurement of cholesterol by high performance liquid chromatography (h.p.l.c.).
[¹⁴C] Squalene was separated from unreacted substrate on thin layer chromatography plates and determined by liquid scintillation counting. Inhibition of squalene synthase was quantified by incubating rat liver homogenate with various concentrations of the test compound in the presence of [2-¹⁴C] farnesylpyrophosphate. The concentration of compound giving 50% inhibition of [¹⁴C] squalene production in a 30 minute assay was taken as the IC₅₀ value.
Turning to `C=C(CC[C@]12O[C@H](C(=O)O)[C@@](O)(C(=O)O)[C@](C(=O)O)(O1)[C@H](OC(=O)/C=C/[C@@H](C)C[C@@H](C)CC)[C@H]2O)[C@@H](OC(C)=O)[C@H](C)Cc1ccc(F)cc1` (relative stereo) [Example 1(a), [1S-[1α(4R*,5S*),3α,4β,5α,6α(2E,4R*,6R*),7β]] 1-[4-Acetoxy-6-(4-fluorophenyl)-5-methyl-3-methylenehexyll-4,6,7-trihydroxy-2,8-dioxabicyclo[3.2.1]octane-3,4,5-tricarboxylic acid, 6-(4,6-dimethyl-2-octenoate)], the IC50 was less than 0.1 µM.

With `C=C(CC[C@]12O[C@H](C(=O)O)[C@@](O)(C(=O)O)[C@](C(=O)O)(O1)[C@H](OC(=O)/C=C/[C@@H](C)C[C@@H](C)CC)[C@H]2O)[C@@H](OC(C)=O)[C@H](C)Cc1cccc(F)c1` (relative stereo) [Example 1(b), [1S-[1α(4R*,5S*),3α,4β,5α,6α(2E,4R*,6R*),7β]] 1-[4-Acetoxy-6-(3-fluorophenyl)-5-methyl-3-methylenehexyl]-4,6,7-trihydroxy-2,8-dioxabicyclo[3.2.1]octane-3,4,5-tricarboxylic acid, 6-(4,6-dimethyl-2-octenoate)], the IC50 was less than 0.1 µM.

Take `C=C(CC[C@]12O[C@H](C(=O)O)[C@@](O)(C(=O)O)[C@](C(=O)O)(O1)[C@H](OC(=O)/C=C/[C@@H](C)C[C@@H](C)CC)[C@H]2O)[C@@H](OC(C)=O)[C@H](C)Cc1ccccc1F` (relative stereo) [Example 1(c), [1S-[1α(4R*,5S*),3α,4β,5α,6α(2E,4R*,6R*),7β]] 1-[4-Acetoxy-6-(2-fluorophenyl)-5-methyl-3-methylenehexyl]-4,6,7-trihydroxy-2,8-dioxabicyclo[3.2.1]octane-3,4,5-tricarboxylic acid, 6-(4,6-dimethyl-2-octenoate)]: the IC50 is less than 0.1 µM.
